We go through six molecules from publication PMC6470523, “Introduction of Nonacidic Side Chains on 6-Ethylcholane Scaffolds in the Identification of Potent Bile Acid Receptor Agonists with Improved Pharmacokinetic Properties” (Molecules, 2019).

≈ marks a conversion by molar mass, not a printed value.

Data set [1] can be described thus: Aqueous solubility measurement (PBS pH 7.4, LC-MS). It counts as physicochemical. Particulars: aqueous buffer, kinetic from dmso stock; aqueous solubility at pH 7.4 (PBS), 24 h room temperature. On the procedure: (§1) Chromatography was performed using an Alliance pump system coupled to a Q-ToF Premiere (Waters Co., Milford, MA, USA). The mixture was separated on a Luna 5 µm C8(2) 100° A 150 × 2 mm from Phenomenex. The mobile phase consisted of 0.2% formic acid (FA) in water as solvent A and 0.2% FA in acetonitrile as solvent B at a flow rate of 200 μL/min. The gradient was as follows: 0–2 min (70% A and 30% B), 2–20 min (5% A and 95% B), 20–30 min (70% A and 30% B). The detection of analytes was achieved by electrospray ionization (ESI) in the positive mode with the appropriate MS/MS transitions, if necessary.
Ten microliters of a 10 mM solution in DMSO of each compound was diluted either in 490 μL of PBS pH 7.4 or in organic solvent MeOH (in triplicate). The tubes were gently shaken 24 h at room temperature, then centrifuged for 5 min at 4000 rpm. 10 microliters of sample were diluted in 490 μL of MeOH. The solubility is determined by the ratio of mass signal area PBS/organic solvent.

The nature of data set [2]: Liver microsomal stability. In kind it is in vitro ADME, mouse. Particulars: liver microsomes; for microsomal CLint at 1 µM / half-life at 1 µM: male, CD-1, mouse, pH 7.4, 1 μM compound, 37 °C; for half-life at 1 µM: read-out: t½. On the procedure:
as §1
Male mouse (CD-1) liver microsomes (Sigma-Aldrich, St. Louis, MO, USA) were used. All incubations were performed in duplicate in a shaking water bath at 37 °C. The incubation mixtures contained 1 μM compound with 1% DMSO used as a vehicle, mouse liver microsomes (0.3 mg of microsomal protein per mL), 5 mM MgCl2, 1 mM NADP, 5 mM glucose 6-phosphate, 0.4 U·mL^−1 glucose 6-phosphate dehydrogenase, and 50 mM potassium phosphate buffer (pH 7.4) in a final volume of 0.5 mL. Aliquots were removed at 0, 5, 10, 20, 30, and 40 min after microsome addition and the reaction was stopped by adding 200 μL of ice-cold acetonitrile. After two hours, the samples were centrifuged for 10 min at 10,000 rpm, and the supernatants were transferred in matrix tubes for LC-MS/MS analysis. LC-MS/MS analysis were carried out setting the m/z window around the value of the MH^+ of the unmodified compounds.
Propranolol, known as a high hepatic clearance drug in rodents, was used as a quality-control compound for the microsomal incubations. The slope of the linear regression of the curve obtained reporting the natural logarithm of compound area versus incubation time (−k) was used in the conversion to in vitro t1/2 values by t1/2 = −ln(2)/k. In vitro intrinsic clearance (Clint expressed as μL/min/mg) was calculated according to the following formula: Clint = volume of reaction (µL)/t1/2(min)/protein of liver microsomes (mg). The percentage of unmodified compound has been calculated assuming the area of the compound peak at time 0 min as 100%.
On the technique in general: Liver microsomes are a subcellular fraction often used to study metabolism.

The target of another data set is T1, human FXR (Homo sapiens, UniProt Q96RI1).
T1 construct: expressed in transfected cells; host or cells: HepG2
T1 sequence (Q96RI1 1-486): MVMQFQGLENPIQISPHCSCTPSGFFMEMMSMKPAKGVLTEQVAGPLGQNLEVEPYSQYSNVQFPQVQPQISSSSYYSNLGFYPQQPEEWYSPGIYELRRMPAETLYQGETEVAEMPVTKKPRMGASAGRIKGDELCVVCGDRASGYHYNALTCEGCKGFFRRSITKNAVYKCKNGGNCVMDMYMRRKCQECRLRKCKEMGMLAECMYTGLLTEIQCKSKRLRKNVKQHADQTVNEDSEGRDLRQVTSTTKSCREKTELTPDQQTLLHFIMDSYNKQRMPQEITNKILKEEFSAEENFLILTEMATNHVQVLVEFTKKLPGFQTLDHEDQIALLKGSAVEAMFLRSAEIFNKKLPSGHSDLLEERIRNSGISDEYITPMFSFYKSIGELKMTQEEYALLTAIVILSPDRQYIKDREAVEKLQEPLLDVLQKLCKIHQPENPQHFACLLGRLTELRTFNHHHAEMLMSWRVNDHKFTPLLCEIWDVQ
T1 sequence (P19793 1-462 partner): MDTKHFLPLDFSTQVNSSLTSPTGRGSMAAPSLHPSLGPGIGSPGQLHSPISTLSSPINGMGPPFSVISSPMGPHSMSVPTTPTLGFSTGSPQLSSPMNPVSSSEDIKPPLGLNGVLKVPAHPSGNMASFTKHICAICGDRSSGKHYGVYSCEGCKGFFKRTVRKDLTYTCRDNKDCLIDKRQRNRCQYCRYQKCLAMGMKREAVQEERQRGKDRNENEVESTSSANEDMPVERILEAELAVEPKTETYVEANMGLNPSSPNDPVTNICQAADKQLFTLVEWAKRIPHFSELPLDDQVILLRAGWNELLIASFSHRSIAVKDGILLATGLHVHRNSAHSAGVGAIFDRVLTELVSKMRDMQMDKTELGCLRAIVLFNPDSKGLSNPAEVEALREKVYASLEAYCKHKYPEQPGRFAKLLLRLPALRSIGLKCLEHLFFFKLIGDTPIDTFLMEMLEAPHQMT
The experiment in a line: FXR transactivation luciferase reporter assay in HepG2 cells. It counts as cell-based. The settings on record: for FXR Eff (%) vs 6-ECDCA: maximum efficacy of compound (10 µM) relative to 6-ECDCA (1 µM) set as 100%; for FXR Eff (%) vs 6-ECDCA / FXR Eff (%) vs CDCA: FRE transactivation; for FXR Eff (%) vs 6-ECDCA / FXR Eff (%) vs CDCA / EC50: HepG2 cells; for FXR Eff (%) vs CDCA: maximum efficacy of compound (10 µM) relative to CDCA (10 μM) set as 100%; for FXR activity (in words): transactivation assay; for EC50: dose response 0.5 to 50 µM, 18 h. On the procedure: (§2) To evaluate FXR mediated transactivation, HepG2 cells were transfected with 100 ng of human pSG5-FXR, 100 ng of human pSG5-RXR, 200 ng of the reporter vector p(hsp27)-TK-LUC containing the FXR response element IR1 cloned from the promoter of heat shock protein 27 (hsp27) and with 100 ng of pGL4.70 (Promega), a vector encoding the human Renilla gene. To evaluate GPBAR1 mediated transactivation, HEK293T cells were transfected with 200 ng of human pGL4.29 (Promega), a reporter vector containing a cAMP response element (CRE) that drives the transcription of the luciferase reporter gene luc2P, with 100 ng of pCMVSPORT6-human GPBAR1, and with 100 ng of pGL4.70. […] After treatments, 10 μL of cellular lysates were read using a Dual-Luciferase Reporter Assay System (Promega Italia srl, Milan, Italy) according manufacturer specifications using the Glomax20/20 luminometer (Promega Italia srl, Milan, Italy). Luciferase activities were assayed and normalized with Renilla activities.
(§3) At 18 h post stimulations, cellular lysates were assayed for luciferase and Renilla activities using the Dual-Luciferase Reporter Assay System (E1980, Promega Italia srl, Milan, Italy). Luminescence was measured using Glomax 20/20 luminometer (Promega Iralia srl, Milan, Italy). Luciferase activities were normalized with Renilla activities.

Another data set deals with T2, human GPBAR1 (Homo sapiens, UniProt Q8TDU6).
T2 construct: expressed in transfected cells; host or cells: HEK293T
T2 sequence (Q8TDU6 1-330): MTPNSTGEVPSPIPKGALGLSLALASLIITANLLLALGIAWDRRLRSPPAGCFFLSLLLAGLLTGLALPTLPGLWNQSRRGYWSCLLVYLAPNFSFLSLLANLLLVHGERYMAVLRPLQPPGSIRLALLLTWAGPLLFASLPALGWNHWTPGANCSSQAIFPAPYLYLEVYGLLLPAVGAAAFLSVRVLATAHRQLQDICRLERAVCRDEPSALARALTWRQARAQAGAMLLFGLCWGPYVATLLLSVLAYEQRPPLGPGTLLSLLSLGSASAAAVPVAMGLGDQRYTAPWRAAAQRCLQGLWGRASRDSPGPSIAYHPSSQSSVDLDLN
Nature of the data set: GPBAR1 transactivation (CRE luciferase reporter) assay in HEK293T cells. In kind it is cell-based. Particulars: for GPBAR1 Eff (%) vs 6-ECDCA: maximum efficacy of compound (10 µM) relative to 6-ECDCA (1 µM) set as 100, CRE transactivation; for GPBAR1 Eff (%) vs TLCA: maximum efficacy of compound (10 µM) relative to TLCA (10 μM) set as 100, CRE transactivation; for EC50: dose response 0.5 to 50 µM, 18 h. On the procedure: as §2, §3
A general note: In a reporter assay the amount or activity of a reporter protein is the signal.

Usually solubility stands for the concentration that dissolves in the medium under given conditions. In general, microsomal CLint refers to the rate of metabolic loss divided by the concentration. The low end stands for slow turnover, the high end for rapid turnover. Turning to `CC[C@H]1[C@@H](O)[C@@H]2[C@H](CC[C@]3(C)[C@@H]([C@H](C)CCC(=O)O)CC[C@@H]23)[C@@]2(C)CC[C@@H](O)C[C@@H]12` [6-ECDCA, 6-ethylchenodeoxycholic acid, reference compound], the solubility at 24 h in data set [1] stood at 195 µM (≈ 82 µg/mL). Also, in data set [2], the “Percentage of compound remaining in solution after 40 min incubation” value (shortened to “Percentage of compound remaining”) turned out to be 26.9%, the microsomal CLint at 1 µM came to 109 µL/min/mg and the half-life at 1 µM stood at 21.1 min.
`C=CC(C)C1CCC2C3C(O)C(CC)C4CCCCC4(C)C3CCC12C` (stereo not drawn) [compound 4, 6α-Ethyl-7α-hydroxy-24-nor-5β-chol-23-ene]: on human FXR, the “FXR Eff (%) vs 6-ECDCA” value amounted to 3.1%, the “FXR Eff (%) vs CDCA” value came to 17% and the “FXR activity (in words)” value was “inactive”. Further, on human GPBAR1, the “GPBAR1 Eff (%) vs 6-ECDCA” value is on record as 68.8% and the “GPBAR1 Eff (%) vs TLCA” value came to 15%.
The EC50 is the concentration at which the effect is half-maximal. Lower therefore signals higher potency in that assay. In the case of `CCC1C(O)C2C3CCC(C(C)CO)C3(C)CCC2C2(C)CCC(O)CC12` (stereo not drawn) [compound 3, 6α-Ethyl-3α, 7α -dihydroxy-23,24-dinor-5β-cholan-22-ol], at human FXR, the EC50 stood at 2800 ± 450 nM, the “FXR Eff (%) vs 6-ECDCA” value turned out to be 45% and the “FXR Eff (%) vs CDCA” value was determined as 257%. On human GPBAR1, the EC50 worked out at 430 ± 15 nM, the “GPBAR1 Eff (%) vs 6-ECDCA” value was determined as 243.4% and the “GPBAR1 Eff (%) vs TLCA” value is on record as 55%. Also, the solubility at 24 h in data set [1] is 210 µM (≈ 79.5 µg/mL). In data set [2], the “Percentage of compound remaining” value was found to be 60.6%, the microsomal CLint at 1 µM was determined as 36.6 µL/min/mg and the half-life at 1 µM is 63 min.
Consider `CCC(C)C1CCC2C3C(O)C(CC)C4CCCCC4(C)C3CCC12C` (stereo not drawn) [compound 5, 6α-Ethyl-7α-hydroxy-23,24-dinor-5β-cholane], for which, at human FXR, the “FXR Eff (%) vs 6-ECDCA” value was 2.5%, the “FXR Eff (%) vs CDCA” value came out at 14% and the “FXR activity (in words)” value was “inactive”. For the same molecule, at human GPBAR1, the “GPBAR1 Eff (%) vs 6-ECDCA” value turned out to be 53.4% and the “GPBAR1 Eff (%) vs TLCA” value was 12%.
For `CCC(C)C1CCC2C3C(O)C(CC)C4CC(O)CCC4(C)C3CCC12C` (stereo not drawn) [compound 2, 6α-Ethyl-3α, 7α -dihydroxy-24-nor-5β-cholane], at human FXR, a half-maximal response (EC50) required 1300 ± 120 nM, the “FXR Eff (%) vs 6-ECDCA” value is listed as 46.5% and the “FXR Eff (%) vs CDCA” value is 249%. Moreover, on human GPBAR1, the EC50 is 1500 ± 290 nM, the “GPBAR1 Eff (%) vs 6-ECDCA” value came out at 255.2% and the “GPBAR1 Eff (%) vs TLCA” value amounted to 53%. The concentration in solution in data set [1] (solubility at 24 h) was 176 µM (≈ 66.3 µg/mL). Further, in data set [2], the “Percentage of compound remaining” value is 72.8%, the microsomal CLint at 1 µM was found to be 25 µL/min/mg and the half-life at 1 µM is 92.4 min.
On to `C=CC(C)C1CCC2C3C(O)C(CC)C4CC(O)CCC4(C)C3CCC12C` (stereo not drawn) [compound 1, 6α-Ethyl-3α, 7α-dihydroxy-24-nor-5β-chol-23-ene], for which, at human FXR, the EC50 stood at 1800 ± 500 nM, the “FXR Eff (%) vs 6-ECDCA” value came out at 45.6% and the “FXR Eff (%) vs CDCA” value is listed as 252%. Also, at human GPBAR1, the EC50 amounted to 140 ± 32 nM, the “GPBAR1 Eff (%) vs 6-ECDCA” value was determined as 367.1% and the “GPBAR1 Eff (%) vs TLCA” value is recorded as 79%. In data set [1], this molecule came in with a solubility at 24 h of 201 µM (≈ 75.3 µg/mL). In data set [2], the “Percentage of compound remaining” value was 42.2%, the microsomal CLint at 1 µM came to 52.6 µL/min/mg and the half-life at 1 µM is 43.8 min.
